Measured values taken from patent US9738655B2, “Tetrahydroisoquinolines containing substituted azoles as factor XIa inhibitors” (BRISTOL-MYERS SQUIBB COMPANY, priority 2013, dated 2017).
pKi: −log10 of the molar value. Where a name gives a salt, the structure may show the parent alone.

Target: purified human plasma kallikrein (Homo sapiens (Human), UniProt P03952)
Assay: Plasma kallikrein enzyme inhibition assay (chromogenic substrate S-2302)
Format: biochemical
[1] = measured at 25° C. (no asterisk), TFA salt
[2] = measured at 25° C. (no asterisk)

purified human plasma kallikrein, sequence (P03952 391-638): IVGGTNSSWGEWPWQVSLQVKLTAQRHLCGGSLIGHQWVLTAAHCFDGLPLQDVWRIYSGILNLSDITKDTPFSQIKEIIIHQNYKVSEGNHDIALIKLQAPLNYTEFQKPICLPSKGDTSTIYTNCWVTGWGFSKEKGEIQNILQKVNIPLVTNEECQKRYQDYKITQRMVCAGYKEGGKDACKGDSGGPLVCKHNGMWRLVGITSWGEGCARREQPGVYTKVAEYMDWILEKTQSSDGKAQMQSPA
purified human plasma kallikrein, sequence (P03952 20-390 partner): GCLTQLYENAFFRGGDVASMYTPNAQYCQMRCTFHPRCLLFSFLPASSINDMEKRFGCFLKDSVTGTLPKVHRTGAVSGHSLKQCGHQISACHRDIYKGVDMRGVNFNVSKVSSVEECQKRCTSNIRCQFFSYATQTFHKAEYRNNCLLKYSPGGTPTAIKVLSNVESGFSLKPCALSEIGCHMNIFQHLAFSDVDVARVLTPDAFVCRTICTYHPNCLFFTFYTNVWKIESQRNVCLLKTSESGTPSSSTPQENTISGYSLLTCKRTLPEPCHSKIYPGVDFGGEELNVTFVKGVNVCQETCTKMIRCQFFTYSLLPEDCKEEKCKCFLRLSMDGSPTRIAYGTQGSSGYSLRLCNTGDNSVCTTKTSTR

Structure (SMILES) | pKi [2] | other results
COC1CCN(c2cccc3c2CCN(C(=O)C2CC(c4cccc(Cl)c4F)=NO2)C3C(=O)Nc2ccc(C(=O)O)cc2)CC1 (single isomer, unassigned) [Example 303, 4-(2-(3-(3-chloro-2-fluorophenyl)-4,5-dihydroisoxazole-5-carbonyl)-5-(4-methoxypiperidin-1-yl)-1,2,3,4-tetrahydroisoquinoline-1-carboxamido)benzoic acid, TFA salt] | – | pKi [1]: 5.71
COC1CCN(c2cccc3c2CCN(C(=O)C2CC(c4cccc(Cl)c4F)=NO2)C3C(=O)Nc2ccc(C(=O)O)cc2)CC1 (single isomer, unassigned) [Example 304, 4-(2-(3-(3-chloro-2-fluorophenyl)-4,5-dihydroisoxazole-5-carbonyl)-5-(4-methoxypiperidin-1-yl)-1,2,3,4-tetrahydroisoquinoline-1-carboxamido)benzoic acid, TFA salt] | – | pKi [1]: 6.64
COC1CCN(c2cccc3c2CCN(C(=O)C2CC(c4cccc(Cl)c4F)=NO2)C3C(=O)Nc2ccc(C(=O)O)cc2)CC1 (single isomer, unassigned) [Example 305, 4-(2-(3-(3-chloro-2-fluorophenyl)-4,5-dihydroisoxazole-5-carbonyl)-5-(4-methoxypiperidin-1-yl)-1,2,3,4-tetrahydroisoquinoline-1-carboxamido)benzoic acid, TFA] | – | pKi (measured at 25° C. (no asterisk), TFA): 7.50
O=C(O)c1ccc(NC(=O)C2c3cccc(N4CCOCC4)c3CCN2C(=O)[C@H]2CC(c3cccc(Cl)c3F)=NO2)cc1 (stereo in doubt) [Example 296, 4-((S)-2-((R)-3-(3-chloro-2-fluorophenyl)-4,5-dihydroisoxazole-5-carbonyl)-5-morpholino-1,2,3,4-tetrahydroisoquinoline-1-carboxamido)benzoic acid, TFA salt] | 6.73 | –
O=C(O)c1ccc(NC(=O)[C@@H]2c3ccccc3CCN2C(=O)[C@H]2CC(c3cccc(Cl)c3F)=NO2)cc1 [Example 4, 4-((S)-2-((R)-3-(3-Chloro-2-fluorophenyl)-4,5-dihydroisoxazole-5-carbonyl)-1,2,3,4-tetrahydroisoquinoline-1-carboxamido)benzoic acid] | 8.20 | –
O=C(O)c1ccc(NC(=O)[C@H]2c3ccccc3CCN2C(=O)[C@H]2CC(c3cccc(Cl)c3F)=NO2)cc1 [Example 5, 4-((R)-2-((R)-3-(3-Chloro-2-fluorophenyl)-4,5-dihydroisoxazole-5-carbonyl)-1,2,3,4-tetrahydroisoquinoline-1-carboxamido)benzoic acid] | 5.86 | –
CNC(=O)c1ccc(-c2cccc3c2CCN(C(=O)[C@H]2CC(c4cccc(Cl)c4F)=NO2)[C@@H]3C(=O)Nc2ccc(C(=O)O)cc2)cn1 [Example 19, 4-((S)-2-((R)-3-(3-Chloro-2-fluorophenyl)-4,5-dihydroisoxazole-5-carbonyl)-5-(6-(methylcarbamoyl)pyridin-3-yl)-1,2,3,4-tetrahydroisoquinoline-1-carboxamido)benzoic acid, TFA salt] | 8.82 | –
CNC(=O)c1ccc(-c2cccc3c2CCN(C(=O)[C@H]2CC(c4cccc(Cl)c4F)=NO2)[C@H]3C(=O)Nc2ccc(C(=O)O)cc2)cn1 [Example 20, 4-((R)-2-((R)-3-(3-Chloro-2-fluorophenyl)-4,5-dihydroisoxazole-5-carbonyl)-5-(6-(methylcarbamoyl)pyridin-3-yl)-1,2,3,4-tetrahydroisoquinoline-1-carboxamido)benzoic acid, TFA salt] | 6.08 | –
O=C(O)c1ccc(NC(=O)[C@@H]2c3cccc(-c4cncc(F)c4)c3CCN2C(=O)[C@H]2CC(c3cccc(Cl)c3F)=NO2)cc1 [Example 21, 4-((S)-2-((R)-3-(3-Chloro-2-fluorophenyl)-4,5-dihydroisoxazole-5-carbonyl)-5-(5-fluoropyridin-3-yl)-1,2,3,4-tetrahydroisoquinoline-1-carboxamido)benzoic acid, TFA salt] | – | pKi (measured at 37° C. (*)): 8.02
